Results as given in patent EP0496617B1, “Adenosine kinase inhibitors” (priority 1991, dated 1992).
Like-named read-outs stand apart in the source and are kept apart here. Values belong to the molecule of their own block, whether it stands above or below them.

Experiments:
[1] = tested on: Isolated guinea pig hearts; assay: Functional recovery in isolated hearts after low flow ischemia (Langendorff); conditions: Conc. 0.3 ( M) in perfusion buffer; for Functional Recovery (% preischemic LVDP): 45 minutes low flow ischemia, 30 minutes reperfusion
Protocol: The ability of a number of adenosine kinase inhibitors to improve the recovery of post-ischemic function was examined in an isolated guinea pig heart model.
Isolated guinea pig hearts were cannulated via the ascending aorta and attached to a perfusion apparatus according to the method of Langendorff. The hearts were perfused at a constant pressure of 60 cm of H2O with a modified Krebs-Hanseleit buffer (pH 7.4) at 37°C. Left ventricular developed pressures (LVDP) were monitored continuously using a latex balloon attached to a pressure transducer. Coronary flows were measured gravimetrically by timed collection of pulmonary effluent. Following equilibration of the hearts for a period of 30 minutes, the hearts were subjected to 45 minutes of low flow ischemia, by reducing the perfusion pressure to 10 cm of H2O, and then reperfused for 30 minutes by restoring the pressure to its. original level (60 cm of H2O). The adenosine kinase inhibitors GP-1-238, GP-1-515 and GP1-547 were added to the perfusion buffer at the final concentrations specified. […] TABLE A

guinea pig ileum = assay: Inhibition of contraction in isolated ileum; conditions: electrically stimulated; reversal by 8SPT and ADA; Figure 3
Protocol: The ability of adenosine kinase inhibition to affect stimulated contraction of muscle strips from the isolated ileum has been investigated.
Parallel platinum electrodes were used to deliver electrical current at 1 minute intervals at a voltage adequate to induce contraction of 90% of maximal. The adenosine kinase inhibitors, GP-1-515 or GP-1-547 were added to the tissue baths at different concentrations, with or without either the adenosine receptor antagonist, 8-sulphophenyltheophylline (8SPT) or adenosine deaminase (ADA), and the effects on contraction monitored.

[2] = target: purified pig heart adenosine kinase (Sus scrofa, UniProt A0A5G2R0F5); assay: Inhibition of adenosine kinase activity; format: biochemical
purified pig heart adenosine kinase, sequence (A0A5G2R0F5 1-362): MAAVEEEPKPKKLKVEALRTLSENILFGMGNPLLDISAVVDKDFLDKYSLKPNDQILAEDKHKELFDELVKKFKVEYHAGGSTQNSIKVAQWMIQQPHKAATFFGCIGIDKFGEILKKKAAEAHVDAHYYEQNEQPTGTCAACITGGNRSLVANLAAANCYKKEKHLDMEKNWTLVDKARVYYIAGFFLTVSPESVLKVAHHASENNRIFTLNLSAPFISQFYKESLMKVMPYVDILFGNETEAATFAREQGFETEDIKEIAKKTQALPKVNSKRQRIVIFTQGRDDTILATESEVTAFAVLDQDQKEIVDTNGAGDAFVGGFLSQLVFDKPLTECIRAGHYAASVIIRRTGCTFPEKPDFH
Protocol: Inhibition of enzyme activity was determined using a 0.1 ml assay mixture containing 50 mM Tris-maleate, pH 7.0, 0.1% (w/v) BSA, 1 mM ATP, 1 mM MgCl2, 0.5 µM [U-^14C] adenosine (500 mCi/mmol) and 0.1 µg of purified pig heart adenosine kinase. Different concentrations of the test compounds were incubated in the assay mixture for 20 min at 37°C. From each reaction mixture, 20 µl portions were removed and spotted on 2 cm^2 pieces of Whatman DE81 filter paper. The papers were then washed to remove [^14C] adenosine in 1mM ammonium formate followed by deionized water and finally 95% ethanol. The papers were dried, and [^14C]AMP measured by scintillation counting. Activities were determined from the amount of [^14C]AMP formed. This is a suitable in vitro test method for determining adenosine kinase enzyme inhibition activity.

adenosine kinase = adenosine kinase (Bos taurus, UniProt A0AAA9TET8); assay: Adenosine kinase inhibition in intact cells; format: cell-based
adenosine kinase, sequence (A0AAA9TET8 1-345): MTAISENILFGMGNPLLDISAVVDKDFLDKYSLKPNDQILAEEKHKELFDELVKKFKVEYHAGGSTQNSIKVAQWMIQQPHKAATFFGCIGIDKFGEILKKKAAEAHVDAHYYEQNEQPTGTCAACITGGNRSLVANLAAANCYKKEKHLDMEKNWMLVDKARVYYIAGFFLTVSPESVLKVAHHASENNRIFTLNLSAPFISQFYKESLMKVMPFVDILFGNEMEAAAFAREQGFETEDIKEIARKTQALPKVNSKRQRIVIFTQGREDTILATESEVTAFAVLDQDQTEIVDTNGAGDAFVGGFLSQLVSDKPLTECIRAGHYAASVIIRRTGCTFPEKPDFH
Protocol: Inhibition of adenosine kinase in intact cells was determined from the amount of incorporation of radioisotope from adenosine into the adenylates (AMP, ADP and ATP) in the presence of adenosine deaminase inhibition. Capillary endothelial cells from bovine heart were incubated for 60 min. With 20 µM 2'-deoxycoformycin, a potent adenosine deaminase inhibitor. Different concentrations of the test compounds were then added to the cells and incubated for 15 min. after which 5 µM [^3H]adenosine was added and the cells incubated for a further 15 min. The media was then discarded and the cells were treated with 50 µl 0.4 M perchloric acid, centrifuged and the supernatants neutralized with 100 µl alanine: freon (1:4). Radiosotope-labelled adenylates were separated by TLC on PEI cellulose plates developed in methanol:water (1:1) and incorporation of ^3H determined by scintillation counting.

rat cardiomyocytes = conditions: inhibition of adenosine deaminase alone; cited from earlier work
[3] = tested on: human umbillical vein endothelial cells; assay: Inhibition of neutrophil adherence to endothelial cells; format: cell-based; conditions: fMLP-stimulated human neutrophils, 2 hours at 37°C; reversed by adenosine deaminase; Figure 2
Protocol: The ability of an adenosine kinase inhibitor to affect neutrophil adherence to fibroblasts and endothelial cells was evaluated in a cell culture model.
These incubations were carried out in the presence of fMLP-stimulated human neutrophils isolated from whole blood (1.25 x 10^6/ml) with or without adenosine deaminase (0.125 U/ml). At the end of the incubation, the medium was removed and the monolayers of fibroblasts or endothelial cells and adherent neutrophils were fixed by addition of formaldehyde (3.7%) and, after washing to remove non-adherent neutrophils, adherent neutrophils were stained with Weigart's hematoxylin and counted under a light microscope.

mice = conditions: cited from earlier work
guinea pig brain slices = conditions: cited from earlier work
anesthetized rats = conditions: cited from earlier work
Male Swiss Webster mice = assay: PTZ-induced seizures; format: in vivo; conditions: IP at doses of 1, 5 and 10 mg/kg, 45 minutes before PTZ; Figure 4 A
Protocol: The ability of selected adenosine kinase inhibitors to influence PTZ-induced seizures was evaluated in an experimental animal model.
[…] After injections of the convulsant, animals were isolated in separate cages and observed for the onset of seizure.

rat brain slices = conditions: cited from earlier work
rats = assay: Electroshock-induced seizures; format: in vivo; conditions: for No. of Animals (protected/tested): 1 hour before electroshock
Protocol: The ability of the adenosine kinase inhibitors to influence electroshock-induced seizures was also evaluated in an experimental model.
After 1 hour, corneal electrodes were applied to the eyes of each animal and an electrical stimulus of 160 mA delivered for 0.2 seconds. Animals were isolated in separate cages and observed for seizure. Abolition of the hindleg tonic extensor component is taken as the end point for this test and reflects ability of the compound to prevent seizure spread.

[4] = in human blood; cited from earlier work
[5] = tested on: platelet-induced coronary thrombosis; assay: Canine model of platelet-induced coronary thrombosis (Folts, cyclic flow reductions); format: in vivo
Protocol: GP-1-515 was tested in a canine model of platelet-induced coronary thrombosis (Folts, J., Circulation, 1991, 83[Suppl. IV]:IV-3-IV-14). In this model, platelets cyclically aggregate and embolize causing cyclic flow reductions (CFRs) that are quantitated by the frequency and the change in coronary blood flow from low point to peak with each cycle. […] TABLE C

A1 receptor = target: T1, A1 receptor (Homo sapiens, UniProt P30542); assay: A1 receptor binding affinity ([3H]CHA, neuronal membrane); conditions: 1 nM [3H]CHA, 60 min at 37°C
T1 construct: 1 nM [^3H]CHA and 0.5 mg of neuronal membrane; from tissue
T1 sequence (P30542 1-326): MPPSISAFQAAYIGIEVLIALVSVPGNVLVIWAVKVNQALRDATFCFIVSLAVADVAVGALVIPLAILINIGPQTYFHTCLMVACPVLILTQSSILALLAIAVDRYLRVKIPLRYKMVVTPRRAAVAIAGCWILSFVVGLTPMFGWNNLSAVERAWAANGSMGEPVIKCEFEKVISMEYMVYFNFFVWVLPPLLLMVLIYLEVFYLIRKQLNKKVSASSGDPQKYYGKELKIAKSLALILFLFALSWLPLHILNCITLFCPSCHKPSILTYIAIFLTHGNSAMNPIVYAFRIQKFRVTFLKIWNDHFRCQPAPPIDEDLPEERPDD
Source text: The reaction was stopped and unbound [^3H]CHA removed by rapid filtration through Whatman GF/B filters. The filter papers were then solubilized and bound [^3H]CHA determined by scintillation counting.

Anesthetized male dogs = assay: Preclinical model of stable angina (pacing-induced ischemia); format: in vivo
Protocol: GP-1-515, was evaluated for its ability to prevent cumulative cardiac dysfunction associated with repeated episodes of pacing-induced ischemia.
Anesthetized male dogs were instrumented to measure regional myocardial wall thickening during right atrial pacing (Young & Mullane, Am. J. Physio., 1991, 261:1570-1577). Animals were subjected to six repeated episodes of pacing. A continuous IV infusion of […] of GP-1-515 or saline (control) -was administered post pace #1. […] TABLE B

[6] = target: T2, calf intestinal mucosa adenosine deaminase (Bos taurus, UniProt P56658); assay: Inhibition of adenosine deaminase activity; format: biochemical; conditions: 10 min at 37°C
T2 construct: 0.002 units of calf intestinal mucosa adenosine deaminase; from tissue; host or cells: calf intestinal mucosa
T2 sequence (P56658 1-363): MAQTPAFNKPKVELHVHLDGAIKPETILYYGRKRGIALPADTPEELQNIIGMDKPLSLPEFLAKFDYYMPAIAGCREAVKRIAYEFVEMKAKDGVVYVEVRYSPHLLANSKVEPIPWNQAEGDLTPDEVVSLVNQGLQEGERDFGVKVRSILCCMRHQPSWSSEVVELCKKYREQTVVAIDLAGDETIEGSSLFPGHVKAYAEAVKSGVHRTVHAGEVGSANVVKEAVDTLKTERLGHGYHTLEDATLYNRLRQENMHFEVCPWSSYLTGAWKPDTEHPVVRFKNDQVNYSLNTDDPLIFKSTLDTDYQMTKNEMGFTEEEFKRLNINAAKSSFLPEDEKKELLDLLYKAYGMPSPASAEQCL
Protocol: Different concentrations of the test compounds were incubated in the assay mixture for 10 min at 37°C. The reaction was monitored continuously for oxidation of NADH from the change in absorbance at 340nm.

[7] = read-out: IC50 in the adenosine kinase inhibition assay

Compound: NC[C@H]1O[C@@H](n2nc(I)c3c(N)ncnc32)[C@H](O)[C@@H]1O [GP-1-547]
Preischemic Flow [1]: 6.2 ± 0.3 mL/min/g
Functional Recovery (% preischemic LVDP) [1]: 79.0 ± 3.1 % preischemic LVDP
contraction of longitudinal muscle of the ileum (guinea pig ileum): Inhibition of contraction

Compound: C[C@H]1O[C@@H](n2nc(-c3ccccc3)c3c(Nc4ccccc4)ncnc32)[C@H](O)[C@@H]1O [GP-1-665]
IC50 [2, 7]: < 0.01 µM
IC50 (adenosine kinase; read-out: IC50 in the adenosine kinase inhibition assay in intact cells; Capillary endothelial cells from bovine heart, 20 µM 2'-deoxycoformycin): 0.0045 µM

IC50 [2, 7]: < 0.01 µM
Compound: NC[C@H]1O[C@@H](n2cc(Br)c3c(Cl)ncnc32)[C@H](O)[C@@H]1O [GP-1-608, 7-(5-Amino-5-deoxy-1-β-D-ribofuranosyl)-5-bromo-4-chloropyrrolo [2,3-d]pyrimidine]

Compound: OC[C@H]1O[C@@H](n2cnc3c2N=CNC[C@H]3O)C[C@@H]1O [2'-deoxycoformycin]
adenosine release from the cells (rat cardiomyocytes): no effect on adenosine release

Compound: NC[C@H]1O[C@@H](n2nc(-c3ccccc3)c3c(Nc4ccccc4)ncnc32)[C@H](O)[C@@H]1O [GP-1-704]
IC50 [2, 7]: < 0.01 µM

Compound: CNc1ncnc2c1ncn2[C@@H]1O[C@H](CN)[C@@H](O)[C@H]1O [GP-1-272]
neutrophil adhesion to endothelial cells [3]: inhibit neutrophil adhesion to endothelial cells

Compound: C[C@H]1O[C@@H](n2cc(I)c3c(N)ncnc32)[C@H](O)[C@@H]1O [GP-1-456, 5'-deoxy-5-iodotubercidin]
body temperature (mice): hypothermia
flaccidity and spontaneous locomotor activity (mice): pronounced general flaccidity and much-reduced spontaneous locomotor activity
adenosine uptake (guinea pig brain slices): inhibited
blood pressure and heart rate (anesthetized rats): decrease blood pressure and heart rate
PTZ induced seizures (Male Swiss Webster mice): dose-dependent inhibition
adenosine uptake (rat brain slices): inhibited
No. of Animals (protected/tested) (rats; 0.05 mg/kg orally): 1/8
No. of Animals (protected/tested) (rats; 0.10 mg/kg orally): 2/8
ED50 (rats; Rattus norvegicus, po, 1 h, orally, rats, from the data of Table E, read-out: ED50 for protection of electroshock-induced seizures): 0.18 mg/kg
neutrophil adhesion to endothelial cells [3]: inhibit neutrophil adhesion to endothelial cells

IC50 [2, 7]: < 0.01 µM
Compound: [N-]=[N+]=NC[C@H]1O[C@@H](n2nc(-c3ccccc3)c3c(Nc4ccccc4)ncnc32)[C@H](O)[C@@H]1O [GP-1-667]

Compound: OC[C@H]1O[C@@H](n2nc(-c3ccccc3)c3c(Nc4ccccc4)ncnc32)[C@H](O)[C@@H]1O [GP-1-695]
IC50 [2, 7]: < 0.01 µM

Compound: Nc1ncnc2c1ncn2[C@@H]1O[C@H](CO)[C@@H](O)[C@H]1O [adenosine]
half life [4]: < 1 s

Compound: NC[C@H]1O[C@@H](n2nc(Br)c3c(N)ncnc32)[C@H](O)[C@@H]1O [GP-1-515]
IC50 [2]: < 0.01 µM
(N abolished)/(N total) ([5]; 0.03 (dose, unit not given)): 1/8
CFR (D flow) ([5]; 0.03 (dose, unit not given)): 10.1 ± 2.6 (n=7)
CFR (freq.) ([5]; 0.03 (dose, unit not given)): 3.0 ± 0.6 (n=7)
(N abolished)/(N total) ([5]; 0.1 (dose, unit not given)): 3/8
CFR (D flow) ([5]; 0.1 (dose, unit not given)): 11.0 ± 2.1 (n=5)
CFR (freq.) ([5]; 0.1 (dose, unit not given)): 3.4 ± 0.8 (n=5)
(N abolished)/(N total) ([5]; 0.3 (dose, unit not given)): 3/8
CFR (D flow) ([5]; 0.3 (dose, unit not given)): 14.1 ± 1.9 (n=5)
CFR (freq.) ([5]; 0.3 (dose, unit not given)): 4.2 ± 0.6 (n=5)
CFRs abolished (animals) ([5]; summary): 3 of 8
IC50 (A1 receptor): > 100 µM
IC50 (adenosine kinase; Capillary endothelial cells from bovine heart, 20 µM 2'-deoxycoformycin; read-out: IC50 in the adenosine kinase inhibition assay in intact cells): 0.009 µM
% of Non-Ischemic Wall Thickening (Anesthetized male dogs; Pace # 1 (infusion started post pace #1)): 39.8 ± 3.2%
% of Non-Ischemic Wall Thickening (Anesthetized male dogs; Pace # 2, continuous IV infusion of 1 g/kg/min): 43.6 ± 12.0%
% of Non-Ischemic Wall Thickening (Anesthetized male dogs; Pace # 3, continuous IV infusion of 1 g/kg/min): 34.0 ± 19.0%
% of Non-Ischemic Wall Thickening (Anesthetized male dogs; Pace # 4, continuous IV infusion of 1 g/kg/min): 50.5 ± 21.3%
% of Non-Ischemic Wall Thickening (Anesthetized male dogs; Pace # 5, continuous IV infusion of 1 g/kg/min): 75.6 ± 19.4%
% of Non-Ischemic Wall Thickening (Anesthetized male dogs; Pace # 6, continuous IV infusion of 1 g/kg/min): 62.6 ± 17.1%
IC50 [6]: > 1000 µM
Preischemic Flow [1]: 6.5 ± 0.3 mL/min/g
Functional Recovery (% preischemic LVDP) [1]: 79.0 ± 3.4 % preischemic LVDP
contraction of longitudinal muscle of the ileum (guinea pig ileum): Inhibition of contraction
